The text below walks through data of patent US20090047243A1, “COMBINATIONS FOR THE TREATMENT OF B-CELL PROLIFERATIVE DISORDERS” (priority 2007, published 2009).

Experiment [1] concerns H929 multiple myeloma cell line. The experiment in a line: Anti-proliferation assay (ATPLite, 72 h). More on the design: key: S = lnfX·lnfY·ΣIdata(Idata−ILoewe), volume over Loewe additivity. It counts as cell-based, human. Here is the method:
(§1) ANBL6 and INA-6 culture media was also supplemented with 10 ng/ml IL-6. […] MM.1S, MM.1R, OCI-ly10, Karpas 422, and SU-DHL6 cells were provided by the Dana Farber Cancer Institute. H929, RPMI-8226, GA-10, and Farage cells were from ATCC (Cat #'s CCL-155, CRL-9068, CRL-2392 and CRL-2630 respectively). MOLP-8, EJM, KSM-12-PE, and OPM2 were from DSMZ. The ANBL6 and INA-6 cell lines were provided by the M. D. Anderson Cancer Research Center. Compounds were prepared in DMSO at 1000× the highest desired concentration. Master plates were generated consisting of serially diluted compounds in 2- or 3-fold dilutions in 384-well format. For single agent dose response curves, the master plates consisted of 9 individual compounds at 12 concentrations in 2- or 3-fold dilutions. For combination matrices, master plates consisted of individual compounds at 6 or 9 concentrations at 2- or 3-fold dilutions. […] To obtain combination data, two master plates were diluted into the assay plates. […] Thirty microliters of ATPLite (Perkin Elmer) at room temperature was then added to each well. […] Measurements were taken at the top of the well using a luminescence aperture and a read time of 0.1 seconds per well. The percent inhibition (% I) for each well was calculated using the following formula: % I=[(avg. untreated wells-treated well)/(avg. untreated wells)]×100. […] Negative inhibition values result from local variations in treated wells as compared to untreated wells. […] The uncertainty of each fitted parameter was estimated from the range over which the change in reduced chi-squared was less than one, or less than minimum reduced chi-squared if that minimum exceeded one, to allow for underestimated σI errors. Single agent curve data were used to define a dilution series for each compound to be used for combination screening in a 6×6 matrix format. […] The Loewe additivity model was used to quantify combination effects. […] A “Synergy Score” was also used, where the Synergy Score S=log fX log fY ΣIdata(Idata-ILoewe), summed over all non-single-agent concentration pairs, and where log fX,Y is the natural logarithm of the dilution factors used for each single agent. This effectively calculates a volume between the measured and Loewe additive response surfaces, weighted towards high inhibition and corrected for varying dilution factors. An uncertainty σS was calculated for each synergy score, based on the measured errors for the Idata values and standard error propagation.

In experiment [2] the test system is phosphodiesterase (PDE) types. Conditions: PDE type(s) in brackets after the name; cited from earlier work.
Experiment [3] has as its system human multiple myeloma cells (MM.1S). The experiment in a line: Anti-proliferation assay (ATPLite, 72 h). It counts as cell-based. Details: key to synergy score / synergy (score), PDEi × HE-NECA: S = lnfX·lnfY·ΣIdata(Idata−ILoewe), volume over Loewe additivity. On the procedure: as §1
On the technique in general: Cellular ATP, detected with luciferase, serves as a proxy for viable cell number.

In experiment [4] the test system is RPMI-8226 multiple myeloma cell line. As to the kind of experiment: Anti-proliferation assay (ATPLite, 72 h). It counts as cell-based, human. Details: key: S = lnfX·lnfY·ΣIdata(Idata−ILoewe), volume over Loewe additivity. On the procedure:
as §1

In experiment [5] the test system is human multiple myeloma cells (MM.1R). The experiment in a line: Anti-proliferation assay (ATPLite, 72 h). It counts as cell-based. Details: key: S = lnfX·lnfY·ΣIdata(Idata−ILoewe), volume over Loewe additivity. On the procedure: as §1
Experiment [6] relates to human multiple myeloma cells (MM.1R) transfected with siRNA. As to the kind of experiment: Anti-proliferation assay after siRNA transfection. It counts as cell-based. The following applies: MM.1R, siRNA targeting PDE 2A, HE-NECA 0 nM. Here is the method:
siRNA to adenosine receptor A1, A2A, A3, PDE 2A, PDE 3B, PDE 4B, PDE 4D and PDE 7A, and control siRNA siCON were purchased from Dharmacon. A2B siRNA was purchased from Invitrogen. Electroporations were performed using an Amaxa Nucleoporator (program S-20) and solution V. siRNAs were used at 50 nM. […] RNA was isolated using Qiagen RNAeasy kits, and targets quantified by RT-PCR using gene specific primers purchased from Applied Biosystems.
Cells were added to 384-well plates 24 hours prior to compound addition such that each well contained 2000 cells in 35 μL of media. Master plates were diluted 100× (1 μL into 100 μL) into 384-well dilution plates containing only cell culture media. 4.5 μL from each dilution plate was added to each assay plate for a final dilution of 1000×. To obtain combination data, two master plates were diluted into the assay plates. Following compound addition, assay plates were kept at 37° C. and 5% CO2 for 72 hours. Thirty microliters of ATPLite (Perkin Elmer) at room temperature was then added to each well. Final amount of ATP was quantified within 30 minutes using ATPLite luminescent read-out on an Envision 2103 Multilabel Reader (Perkin Elmer). Measurements were taken at the top of the well using a luminescence aperture and a read time of 0.1 seconds per well.
We also examined the antiproliferative activity of adenosine receptor agonists when the MM cell line MM.1R was transfected with siRNA targeting the A1, A2A, A2B or A3 receptor. Specific gene silencing (A1, A2A, A2B, or A3) was greater than 50% as determined by real time PCR analysis 48 hours post-transfection. At 48 hours post-transfection, cells were exposed to adenosine receptor agonist, incubated an additional 72 hours, and compounds assayed for antiproliferative activity. Representative data is in Table 34. Cells transfected with adenosine receptor siRNA or a control siRNA (scrambled sequences designed so that cellular transcriptsare not targeted) were treated with the adenosine receptor agonist ADAC. […] Similar results were obtained with a second siRNA with specificity for different region of the A2A receptor mRNA, confirming that the reduction in adenosine receptor agonist activity is the result of specific siRNA targeting of the A2A receptor (data not shown).
In our experiments, PDE gene silencing was always greater than 50% as confirmed by real time PCR analysis 48 hours post-transfection. At 48 hours post-transfection, cells were exposed to adenosine receptor agonist and PDE inhibitor, incubated an additional 72 hours, and compounds assayed for antiproliferative activity. Representative data is in Tables 39-45. For each analysis, the activity of cells transfected with an siRNA targeting a specific PDE was compared to cells transfected with a control non-targeting siRNA (siCON).

Setting [7] is: PDE inhibitor crossed with (S) ENBA, H929.
[8] abbreviates: PDE inhibitor crossed with Chloro-IB-MECA, H929.
[9] abbreviates: PDE inhibitor crossed with HE-NECA, H929.
[10] abbreviates: PDE inhibitor crossed with (S) ENBA, MM.1S.
Where [11] appears, read: PDE inhibitor crossed with Chloro-IB-MECA, MM.1S.
Setting [12] is: PDE inhibitor crossed with HE-NECA, MM.1S.
Where [13] appears, read: PDE inhibitor crossed with ADAC, H929.
Setting [14] is: PDE inhibitor crossed with ADAC, MM.1S.

As to `CC(=O)CCCCn1c(=O)c2c(ncn2C)n(C)c1=O` [Pentoxifylline], the synergy score is 0.02 in experiment [1] (setting [7]); 0.02 in experiment [1] (setting [8]); 0.09 in experiment [1] (setting [9]); 0.49 in experiment [3] (setting [10]); 0.05 in experiment [3] (setting [11]); 0.29 in experiment [3] (setting [12]). Also, in experiment [2], the “PDE inhibitors (specificity)” value is reported as “Pentoxifylline (pan)”.

The term inhibition denotes how much of the control response was suppressed. As for `CCCCOc1cc(CC2CNC(=O)N2)ccc1OC` (stereo not drawn) [RO-20-1724, 4-(3-butoxy-4-methoxybenzyl)-2-imidazolidinone], the synergy score was 0.09 in experiment [1] (setting [7]); 1.11 in experiment [1] (setting [13]); 1.14 in experiment [1] (setting [8]); 2.51 in experiment [1] (setting [9]); 1.1 in experiment [1] (in combination with adenosine receptor agonist ADAC, H929); 0.51 in experiment [4] (in combination with adenosine receptor agonist ADAC, RPMI-8226). Besides, the synergy score came to 0.73 in experiment [3] (setting [10]); 1.71 in experiment [3] (setting [14]); 1.6 in experiment [3] (setting [11]); 3.58 in experiment [3] (setting [12]); 1.71 in experiment [3] (in combination with adenosine receptor agonist ADAC, MM.1S); 3.42 in experiment [5] (in combination with adenosine receptor agonist ADAC, MM.1R). The “PDE inhibitors (specificity)” value in experiment [2] was “RO-20-1724 (4)”. Also, the inhibition at 2.28 µM in experiment [3] (Homo sapiens, MM1.S, RO-20-1724 2.28 μM, HE-NECA conc. (nM), read-out: Percent inhibition of ATP in MM.1S cells) was determined as 2.3%. The inhibition at 4.55 µM in experiment [3] (Homo sapiens, MM1.S, RO-20-1724 4.55 μM, HE-NECA conc. (nM), read-out: Percent inhibition of ATP in MM.1S cells) worked out at 11%. Also, the inhibition at 18.2 µM in experiment [3] (Homo sapiens, MM1.S, RO-20-1724 18.2 μM, HE-NECA conc. (nM), read-out: Percent inhibition of ATP in MM.1S cells) was 10%. The inhibition at 36.4 µM in experiment [3] (Homo sapiens, MM1.S, RO-20-1724 36.4 μM, HE-NECA conc. (nM), read-out: Percent inhibition of ATP in MM.1S cells) is 1.4%.

Take `CC(C)Cn1c(=O)n(C)c(=O)c2[nH]cnc21` [IBMX]: in experiment [2], the “PDE inhibitors (specificity)” value is recorded as “IBMX (pan)”. The synergy score in experiment [3] (setting [10]) is listed as 0.055.

For the compound `CCOC(=O)C1=C[C@]2(CC)CCCN3CCc4c(n1c1ccccc41)[C@@H]32` [Vinoceptine], the synergy score in experiment [1] (setting [7]) turned out to be 0.21; in experiment [1] (setting [13]), 0.01; in experiment [1] (setting [9]) it was 0; in experiment [3] (setting [10]), 0.25; in experiment [3] (setting [14]), 0.02; in experiment [3] (setting [12]) it was 0.26. Also, in experiment [2], the “PDE inhibitors (specificity)” value was “Vinoceptine (1)”.

In the case of (R)-Rolipram, the synergy score was found to be 0.82 in experiment [1] (setting [7]); 0.51 in experiment [1] (setting [13]); 0.63 in experiment [1] (setting [8]); 2.51 in experiment [1] (setting [9]); 2.08 in experiment [3] (setting [10]); 0.97 in experiment [3] (setting [14]). In addition, the synergy score in experiment [3] (setting [11]) is on record as 0.84; in experiment [3] (setting [12]), 4.38. For the same compound, the “PDE inhibitors (specificity)” value in experiment [2] is given as “(R)-Rolipram (4)”.

Regarding `Nc1nc(N)nc(-c2cc(Cl)ccc2Cl)n1` [Irsogladine], the synergy score turned out to be 0.09 in experiment [1] (setting [7]), 0.05 in experiment [1] (setting [8]), 0.38 in experiment [3] (setting [10]) and 0.25 in experiment [3] (setting [11]). The “PDE inhibitors (specificity)” value in experiment [2] was “Irsogladine (4)”.

`COc1ccc([C@@H]2CNC(=O)C2)cc1OC1CCCC1` [R-(−)-Rolipram]: the “synergy (score), PDEi × HE-NECA” value in experiment [1] (6×6 cross of PDE inhibitor or PDE inhibitor mixture with HE-NECA, H929) worked out at 1.88; in experiment [3] (6×6 cross of PDE inhibitor or PDE inhibitor mixture with HE-NECA, MM.1S), 2.33. In addition, the synergy score in experiment [1] (in combination with adenosine receptor agonist CGS-21680, H929) was found to be 1.93; in experiment [1] (in combination with adenosine receptor agonist HE-NECA, H929), 2.148; in experiment [1] (in combination with adenosine receptor agonist regadenoson, H929), 1.91; in experiment [4] (in combination with adenosine receptor agonist CGS-21680, RPMI 8226), 2.03; in experiment [4] (in combination with adenosine receptor agonist HE-NECA, RPMI-8226), 1.16; in experiment [4] (in combination with adenosine receptor agonist regadenoson, RPMI 8226), 0.63. The synergy score is 1.92 in experiment [3] (in combination with adenosine receptor agonist CGS-21680, MM.1S); 2.965 in experiment [3] (in combination with adenosine receptor agonist HE-NECA, MM.1S); 1.83 in experiment [3] (in combination with adenosine receptor agonist regadenoson, MM.1S); 4.54 in experiment [5] (in combination with adenosine receptor agonist CGS-21680, MM.1R); 3.62 in experiment [5] (in combination with adenosine receptor agonist regadenoson, MM.1R). Further, the Antiproliferative activity in experiment [6] (R-(−)-Rolipram 0.23 μM) is given as 3.8; in experiment [6] (R-(−)-Rolipram 2 μM), 8.1; in experiment [6] (R-(−)-Rolipram 6.1 μM), 5.3; in experiment [6] (R-(−)-Rolipram 18 μM) it was 7.7; in experiment [6] (R-(−)-Rolipram […]) it was −1.2.

On to `Cc1[nH]c(=O)c(C#N)cc1-c1ccncc1` [milrinone], for which the synergy score is given as 0.08 in experiment [1] (setting [8]); 0.15 in experiment [1] (setting [9]); 1.31 in experiment [3] (setting [10]); 0.25 in experiment [3] (setting [11]); 0.33 in experiment [3] (setting [12]). Further, the “PDE inhibitors (specificity)” value in experiment [2] was “Milrinone (3)”.

`CN/C(=N\c1ccc(C2=NNC(=O)CC2C)cc1)NC#N` (stereo not drawn) [Siguazodan]: the synergy score in experiment [1] (setting [7]) was 0.13; in experiment [1] (setting [8]) it was 0.09; in experiment [1] (setting [9]) it was 0.08; in experiment [3] (setting [10]), 1.39; in experiment [3] (setting [11]), 0.42; in experiment [3] (setting [12]), 0.72. In addition, in experiment [2], the “PDE inhibitors (specificity)” value is “Siguazodan (3)”.
